Results as given in US20240384268A1, “Oligonucleotides” (Hudson Institute of Medical Research, priority 2021, published 2024).
In the oligonucleotide strings, read from the 5' end, every base follows the letter of its sugar. An asterisk marks phosphorothioate; unmarked linkages are phosphodiester. Other units and linkages are bracketed, terminal groups are in braces. A string of capitals states the bases alone. d = 2'-deoxy (DNA); m = 2'-O-methyl

Target: T1, human TLR9 (Homo sapiens, UniProt Q9NR96)
T1 construct: HA; host or cells: 293XL-hTLR9-HA (HEK293)
T1 sequence (Q9NR96 26-1032): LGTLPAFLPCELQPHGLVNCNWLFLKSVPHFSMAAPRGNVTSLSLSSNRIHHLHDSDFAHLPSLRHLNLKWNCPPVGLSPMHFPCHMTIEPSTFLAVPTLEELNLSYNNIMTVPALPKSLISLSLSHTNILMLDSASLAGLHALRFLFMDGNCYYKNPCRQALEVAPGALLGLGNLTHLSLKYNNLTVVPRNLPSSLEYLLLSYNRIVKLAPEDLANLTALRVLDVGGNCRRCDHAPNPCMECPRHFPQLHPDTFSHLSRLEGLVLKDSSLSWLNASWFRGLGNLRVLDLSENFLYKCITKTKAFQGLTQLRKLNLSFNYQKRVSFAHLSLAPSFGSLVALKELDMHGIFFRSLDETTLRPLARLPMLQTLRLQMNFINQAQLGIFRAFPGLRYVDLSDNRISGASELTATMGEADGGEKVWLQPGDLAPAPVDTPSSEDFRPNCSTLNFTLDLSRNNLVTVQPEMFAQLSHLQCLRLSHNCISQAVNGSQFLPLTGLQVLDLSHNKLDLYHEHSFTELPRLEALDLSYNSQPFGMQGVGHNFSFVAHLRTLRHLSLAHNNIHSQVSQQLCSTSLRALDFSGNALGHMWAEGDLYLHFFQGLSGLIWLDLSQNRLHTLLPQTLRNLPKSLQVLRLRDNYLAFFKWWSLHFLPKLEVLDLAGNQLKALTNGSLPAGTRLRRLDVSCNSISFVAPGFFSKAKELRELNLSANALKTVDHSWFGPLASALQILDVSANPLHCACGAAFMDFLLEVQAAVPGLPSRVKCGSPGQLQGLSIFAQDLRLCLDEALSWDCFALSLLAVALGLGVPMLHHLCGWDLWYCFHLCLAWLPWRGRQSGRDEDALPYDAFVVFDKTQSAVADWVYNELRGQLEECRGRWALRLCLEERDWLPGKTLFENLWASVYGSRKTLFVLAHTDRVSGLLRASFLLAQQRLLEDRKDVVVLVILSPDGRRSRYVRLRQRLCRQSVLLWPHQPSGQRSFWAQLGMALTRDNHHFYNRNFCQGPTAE
Test: HEK-TLR9 NF-κB-luciferase reporter, ODN2006 stimulation
Type: cell-based
Conditions: for TLR9 2 uM: 3mer 2'OMe ASO at 2 uM, HEK-TLR9, value relative to Ligand only = 1.000, NT = 0.000; for TLR9 100 nM (averaged NF-κB-Luciferase level relative to ODN2006 condition): ASO 100 nM; for TLR9 100 nM (averaged NF-κB-Luciferase level relative to ODN2006 condition) / TLR9 500 nM (averaged NF-κB-Luciferase level relative to ODN2006 condition): relative to ODN2006 only, given as fraction; for TLR9 500 nM (averaged NF-κB-Luciferase level relative to ODN2006 condition): ASO 500 nM

Substance | TLR9 2 uM | TLR9 100 nM (averaged NF-κB-Luciferase level relative to ODN2006 condition) | TLR9 500 nM (averaged NF-κB-Luciferase level relative to ODN2006 condition)
mUmCmA (mU*mC*mA) [UCA, 3-mer 2′OMe PS oligo] | 0.872 |  | 
CCAAGATCAGCAGTCT (antisense; LNA-modified, pattern not given here) [CTNN2B-2341 LNA KL] |  | 1.424 | 0.669
dA*dG*dC (DNA AGC; listed as DNA, chemistry not fully specified) | 0.749 |  | 
TTTTGGCTGGGATCAA (antisense; LNA-modified, pattern not given here) [CAMSAP1-4697 LNA KL] |  | 0.985 | 0.169
GCATCCACCACGTCGT (antisense; LNA-modified, pattern not given here) [EGFR-3267 LNA V1] |  | 0.556 | 0.375
TGCACACTTCGTACCC (antisense; LNA-modified, pattern not given here) [CAMSAP1-4916 LNA V1] |  | 0.283 | 0.244
UAG (mU*mA*mG) | 0.977 |  | 
AAU (antisense mA*mA*mU) | 0.884 |  | 
dG*dC*dC [GCC] | 1.305 |  | 
mGmUmC (mG*mU*mC) [GUC, 3-mer 2′OMe PS oligo] | 0.856 |  | 
ACU (antisense mA*mC*mU) | 0.996 |  | 
mGmAmU (mG*mA*mU) [GAU, 3-mer 2′OMe PS oligo] | 0.700 |  | 
CAACACTTCGTGGGGT (antisense; LNA-modified, pattern not given here) [HPRT LNA-667 V1] |  | 0.733 | 0.395
GTGTCTGGAAGCTTCC (antisense; LNA-modified, pattern not given here) [CTNN2B-809 LNA V1] |  | 0.493 | 0.613
CUC (mC*mU*mC) | 0.966 |  | 
GGU (mG*mG*mU) | 1.177 |  | 
GTATCGAAAGAGTCTG (antisense; LNA-modified, pattern not given here) [EGFR-3908 LNA KL] |  | 1.429 | 0.647
dC*dA*dA (CAA; listed as DNA, chemistry not fully specified) | 0.917 |  | 
dA*dC*dA (DNA ACA; listed as RNA, chemistry not fully specified) | 1.042 |  | 
TGGCCTCCCATCTCCT (antisense; LNA-modified, pattern not given here) [HPRT LNA-329 V1] |  | 0.743 | 0.277
UUG (listed as RNA, chemistry not fully specified) | 0.816 |  | 

Substance | TLR9 2 uM | TLR9 100 nM (averaged NF-κB-Luciferase level relative to ODN2006 condition) | TLR9 500 nM (averaged NF-κB-Luciferase level relative to ODN2006 condition)
GGTTACGGCTCAGTAT (antisense; LNA-modified, pattern not given here) [CAMSAP1-4295 LNA KL] |  | 0.943 | 0.400
UUU (mU*mU*mU) | 0.936 |  | 
dG*dC*dG [GCG] | 1.299 |  | 
UUC (mU*mU*mC) | 0.770 |  | 
GCCATGCTGGCTCGGA (antisense; LNA-modified, pattern not given here) [CAMSAP1-2584 LNA V1] |  | 0.879 | 0.147
ACACTTCGTGGGGTCC (antisense; LNA-modified, pattern not given here) [HPRT LNA-665 V1] |  | 0.241 | 0.001
dC*dC*dG (CCG; listed as DNA, chemistry not fully specified) | 0.936 |  | 
GTTCAGTCCTGTCCAT (antisense; LNA-modified, pattern not given here) [HPRT LNA-292 V1] |  | 1.081 | 0.382
mGmUmU (mG*mU*mU) [GUU, 3-mer 2′OMe PS oligo] | 1.159 |  | 
CCATCCATGAGGTCCT (antisense; LNA-modified, pattern not given here) [CTNN2B-2545 LNA V1] |  | 1.383 | 0.476
UCC (mU*mC*mC) | 1.106 |  | 
mGmUmA (GUA; all 2'-O-methyl, backbone not given here; further chemistry not fully specified) [shortMut1-3b] | 1.042 |  | 
CUG (mC*mU*mG) | 0.948 |  | 
GCCATCCACTTGATAG (antisense; LNA-modified, pattern not given here) [EGFR-2874 LNA V1] |  | 0.772 | 0.589
GTCCCCTGTTGACTGG (antisense; LNA-modified, pattern not given here) [HPRT LNA-489 KL] |  | 0.387 | 0.326
GCCATGTTTCTTCTTG (antisense; LNA-modified, pattern not given here) [MB21D1-1248 LNA KL] |  | 0.163 | 0.070
CAU (mC*mA*mU) | 0.921 |  | 
TTCGTGGGGTCCTTTT (antisense; LNA-modified, pattern not given here) [HPRT LNA-661 V1] |  | 0.963 | 0.523
mGmUmG (mG*mU*mG) [GUG, 3-mer 2′OMe PS oligo] | 1.374 |  | 
dA*dA*dG (DNA AAG; listed as DNA, chemistry not fully specified) | 0.870 |  | 
dA*dG*dA (DNA AGA; listed as DNA, chemistry not fully specified) | 0.848 |  | 

Substance | TLR9 2 uM | TLR9 100 nM (averaged NF-κB-Luciferase level relative to ODN2006 condition) | TLR9 500 nM (averaged NF-κB-Luciferase level relative to ODN2006 condition)
mAmUmC (mA*mU*mC) [AUC, 3-mer 2′OMe PS oligo] | 0.884 |  | 
dC*dC*dA (CCA; listed as DNA, chemistry not fully specified) | 1.014 |  | 
CUA (mC*mU*mA) | 1.182 |  | 
AUA (antisense mA*mU*mA) | 0.944 |  | 
dA*dA*dA (DNA AAA; listed as DNA, chemistry not fully specified) | 0.845 |  | 
UGU (mU*mG*mU) | 1.085 |  | 
GCU (mG*mC*mU) | 1.429 |  | 
AUG (mA*mU*mG) | 0.878 |  | 
GCAGGCTCAGTGATGT (antisense; LNA-modified, pattern not given here) [CTNN2B-1642 LNA V1] |  | 1.036 | 0.228
UAU (mU*mA*mU) | 1.145 |  | 
AGU (antisense mA*mG*mU) | 0.840 |  | 
mUmGmG (mU*mG*mG) [UGG, 3-mer 2′OMe PS oligo] | 1.137 |  | 
TGATGGCCTCCCATCT (antisense; LNA-modified, pattern not given here) [HPRT LNA-332 V1] |  | 0.770 | 0.153
TCGTAGTTGCTTCCTA (antisense; LNA-modified, pattern not given here) [MB21D1-1181 LNA KL] |  | 0.987 | 0.224
dA*dA*dC (DNA AAC; listed as DNA, chemistry not fully specified) | 0.931 |  | 
AUU (mA*mU*mU) | 0.864 |  | 
TCCAACACTTCGTGGG (antisense; LNA-modified, pattern not given here) [HPRT LNA-669 V1] |  | 0.623 | 0.473
mCmUmU (antisense mC*mU*mU) [660-3] | 1.108 |  | 
UGC (mU*mG*mC) | 1.198 |  | 
